Where “and” joins values, the source holds several entries; their conditions need not be identical. Identical values can stand only once.
Assays:
[1] = system: hospitalized men with COVID-19; test: Randomized controlled pilot trial: clinical status and clinical outcomes, progesterone + SOC vs SOC alone; assay type: in vivo, human
[2] = Randomized controlled pilot trial: serious adverse events and safety; assay type: in vivo, human
Description: Death, serious adverse events (SAE's), and grade 3 and 4 adverse events (AEs) are will be assessed and reported throughout the study.
Study patients were assessed daily for 15 days or until discharge, whichever came first. Discharged patients participated in phone or video study visits on days 7 and 15. Clinical assessment performed daily during hospitalization included evaluation of clinical status with daily vital signs, oxygen supplementation type and amount, need for mechanical ventilation, adverse events, and concomitant medications. WBCs, hemoglobin, platelets, electrolytes, BUN, creatinine, liver transaminases, and inflammatory markers, if obtained as part of SOC, were monitored on days 1 through 5, 7, and 15 while patients were hospitalized. […] Self-reported race and ethnicity, obtained from medical records, were collected as demographic information to assess possible differences in disease severity or treatment response. Serious adverse events and grade 3 and 4 adverse events as described in the Division of AIDS Table for Grading the Severity of Adult and Pediatric Adverse Events were recorded.

[3] = 100 mg sc twice daily 5 days + SOC, n = 18
[4] = 100 mg sc twice daily 5 days + SOC, preliminary analysis N = 17
[5] = 7-point ordinal scale, preliminary analysis N = 17, P 0.003 vs SOC
[6] = 7-point ordinal scale, preliminary analysis N = 17, P <0.001 vs SOC
[7] = seven-point ordinal scale, from baseline, n = 18
[8] = Control Group After Progesterone n = 9, SAEs after receiving progesterone (crossover)

## CC(=O)[C@H]1CC[C@H]2[C@@H]3CCC4=CC(=O)CC[C@]4(C)[C@H]3CC[C@]12C [Progesterone, progesterone]
[1]; [3]
  Status on day 7: 1: Death: 1 (5.6) No. (%)
  Status on day 7: 2: Hospitalized; on invasive mechanical ventilation or ECMO: 0 (0.0) No. (%)
  Status on day 7: 3: Hospitalized; on high-flow nasal cannula: 2 (11.1) No. (%)
  Status on day 7: 4: Hospitalized; requiring supplemental oxygen (not HFNC): 2 (11.1) No. (%)
  Status on day 7: 5: Hospitalized; not requiring supplemental oxygen: 4 (22.2) No. (%)
  Status on day 7: 6: Not hospitalized; limitations on activities: 7 (38.9) No. (%)
  Status on day 7: 7: Not hospitalized; no limitations on activities: 2 (11.1) No. (%)
  Status on day 15: 1: Death: 1 (5.6) No. (%)
  Status on day 15: 2: Hospitalized; on invasive mechanical ventilation or ECMO: 0 (0.0) No. (%)
  Status on day 15: 3: Hospitalized; on high-flow nasal cannula: 0 (0.0) No. (%)
  Status on day 15: 4: Hospitalized; requiring supplemental oxygen (not HFNC): 1 (5.6) No. (%)
  Status on day 15: 5: Hospitalized; not requiring supplemental oxygen: 1 (5.6) No. (%)
  Status on day 15: 6: Not hospitalized; limitations on activities: 8 (44.4) No. (%)
  Status on day 15: 7: Not hospitalized; no limitations on activities: 7 (38.9) No. (%)
[1]; [4]
  Status at Day 7: 2-Hospitalized; on invasive mechanical ventilation or ECMO: 0 (0.0) n (%)
  Status at Day 7: 3-Hospitalized; on high flow nasal cannula: 2 (11.8) n (%)
  Status at Day 7: 4-Hospitalized; requiring supplemental oxygen (not HFNC): 2 (11.8) n (%)
  Status at Day 7: 5-Hospitalized; not requiring supplemental oxygen: 4 (23.5) n (%)
  Status at Day 7: 6-Not hospitalized; limitations on activities: 7 (41.2) n (%)
  Status at Day 7: 7-Not hospitalized; no limitations on activities: 2 (11.8) n (%)
  Worst Status Prior to Day 7: 2-Hospitalized; on invasive mechanical ventilation or ECMO: 0 (0.0) n (%)
  Worst Status Prior to Day 7: 3-Hospitalized; on high flow nasal cannula: 5 (29.4) n (%)
  Worst Status Prior to Day 7: 4-Hospitalized; requiring supplemental oxygen (not HFNC): 11 (64.7) n (%)
  Worst Status Prior to Day 7: 5-Hospitalized; not requiring supplemental oxygen: 1 (5.9) n (%)
[1]; [5]
  Change from Baseline at Day 7: 0: 3 (17.6) n (%)
  Change from Baseline at Day 7: +1: 3 (17.6) n (%)
  Change from Baseline at Day 7: +2: 7 (41.2) n (%)
  Change from Baseline at Day 7: +3: 2 (11.8) n (%)
  Change from Baseline at Day 7: −1: 2 (11.8) n (%)
  Change from Baseline at Day 7: −2: 0 (0.0) n (%)
[1]; [6]
  Change from Worst at Day 7: 0: 3 (17.6) n (%)
  Change from Worst at Day 7: +1: 4 (23.5) n (%)
  Change from Worst at Day 7: +3: 2 (11.8) n (%)
[1]; Progesterone Group n = 18
  median hospital length of stay (LOS): 7.0 days
  median number of days on supplemental oxygen: 4.5 (IQR, 2.0-6.0) days and 4.5 days
[1]; day 15, progesterone group
  patients remaining hospitalized at study completion: one
[1]; first seven study days, Kaplan-Meier estimation, one noncompliant patient excluded, log-rank P=0.014 vs control
  cumulative probability of clinical improvement (increase of at least one point on the seven-point scale or live discharge): 0.76 (95% CI, 0.55-0.93)
[1]; median 7.0 vs 9.5 days
  fewer days hospitalized than control: 2.5 days
[1]; nine of 18 patients
  patients remaining hospitalized by day 7: 50%
[1]; post hoc sensitivity analysis, 95% CI, 1.0-2.0, P=0.006
  median improvement more than control group, worst clinical status before day 7 vs status on day 7: two
[1]; preliminary analysis, Wilcoxon rank-sum p=0.003
  improvement in clinical status at Day 7 compared to SOC: greater degree of improvement in clinical status at Day 7
[1]; preliminary sensitivity analysis, p<0.001
  improvement from worst status prior to Day 7 compared to SOC: greater improvement over the SOC group
[1]; progesterone group, vs four of 22 control patients
  mechanical ventilation initiated: none
[1]; sensitivity analysis, last assessment before crossing over imputed as day 7 score, 95% CI, 0.0-2.0, P=0.010
  overall change in score from baseline to day 7, median better than control group: 1.5 points
[1]; [7]
  Change in status on day 7: 0: 3 (16.7) No. (%)
  Change in status on day 7: +1: 3 (16.7) No. (%)
  Change in status on day 7: +2: 7 (38.9) No. (%)
  Change in status on day 7: +3: 2 (11.1) No. (%)
  Change in status on day 7: −1: 2 (11.1) No. (%)
  Change in status on day 7: −2: 0 (0.0) No. (%)
  Change in status on day 7: −3: 1 (5.6) No. (%)
  Change in status on day 15: 0: 1 (5.6) No. (%)
  Change in status on day 15: +1: 4 (22.2) No. (%)
  Change in status on day 15: +2: 4 (22.2) No. (%)
  Change in status on day 15: +3: 7 (38.9) No. (%)
  Change in status on day 15: +4: 1 (5.6) No. (%)
  Change in status on day 15: −1: 0 (0.0) No. (%)
  Change in status on day 15: −2: 0 (0.0) No. (%)
  Change in status on day 15: −3: 1 (5.6) No. (%)
[1]; seven-point ordinal scale, from baseline, n = 18, P .024 vs control
  Change in status on day 7, median (IQR): 1.5 (0.0 to 2.0)
[1]; seven-point ordinal scale, from baseline, n = 18, P .150 vs control
  Change in status on day 15, median (IQR): 2.0 (1.0 to 3.0)
[1]; seven-point ordinal scale, 95% CI, 0.0-2.0, P=0.024
  overall improvement in median clinical status score from baseline to day 7 compared with control: 1.5 points
[2]; 100 mg sc twice daily
  serious adverse events attributable to progesterone: no serious adverse events attributable to progesterone
[2]; [8]
  Any SAE or death: 3 (33.3) No. (%)
  SAE: Cardiac arrest: 0 (0.0) No. (%)
  SAE: Creatinine increased: 0 (0.0) No. (%)
  SAE: DVT: 1 (11.1) No. (%)
  SAE: Death: 0 (0.0) No. (%)
  SAE: Hypoperfusion: 2 (22.2) No. (%)
  SAE: Hypoxia: 3 (33.3) No. (%)
  SAE: Lymphocyte count decreased: 0 (0.0) No. (%)
  SAE: Pulmonary embolism: 0 (0.0) No. (%)
[2]; Progesterone Group n = 18
  Any SAE or death: 2 (11.1) No. (%)
  SAE: Cardiac arrest: 0 (0.0) No. (%)
  SAE: Creatinine increased: 0 (0.0) No. (%)
  SAE: DVT: 1 (5.6) No. (%)
  SAE: Death: 1 (5.6) No. (%)
  SAE: Hypoperfusion: 0 (0.0) No. (%)
  SAE: Hypoxia: 0 (0.0) No. (%)
  SAE: Lymphocyte count decreased: 0 (0.0) No. (%)
  SAE: Pulmonary embolism: 1 (5.6) No. (%)
[2]; all patients on prophylactic-dose anticoagulation
  risk of thromboembolism: not associated with any significant increase in the risk of thromboembolism
[2]; levels as high as 288 ng/mL
  tolerability of high serum levels: tolerated well and not associated with any adverse events
[2]; progesterone group, not attributable to progesterone
  deaths during the total 15-day surveillance period: one
[2]; progesterone group, two thromboembolic events in one patient
  patients with thromboembolic events: 5.6%
